The experiment concerns IL-6. As to the kind of experiment: Measurement of LPS induced IL-6 secretion from whole blood. The following applies: LPS 200 ng/ml stimulated whole blood, 24 hours, IL-6 by immunoassay. The class given is cell-based. The method, then: Measurement of LPS Induced IL-6 Secretion from Whole Blood
Activation of monocytic cells by agonists of toll-like receptors such as bacterial lipopolysaccharide (LPS) results in production of key inflammatory mediators including IL-6. Such pathways are widely considered to be central to the pathophysiology of a range of auto-immune and inflammatory disorders.
Compounds to be tested are diluted to give a range of appropriate concentrations of which 1 ul of the diluted stocks is added to a 96 well plate. Following addition of whole blood (130 ul) the plates are incubated at 37 degrees (5% CO2) for 30 min before the addition of 10 ul of 2.8 ug/ml LPS, diluted in complete RPMI 1640 (final concentration=200 ng/ml), to give a total volume of 140 ul per well. After further incubation for 24 hours at 37 degrees, 140 ul of PBS are added to each well. The plates are sealed, shaken for 10 minutes and then centrifuged (2500 rpm×10 min). 100 ul of the supernatant are removed and IL-6 levels assayed by immunoassay (typically by MesoScale Discovery technology) either immediately or following storage at −20 degrees. Concentration response curves for each compound was generated from the data and an IC50 value was calculated

The IC50 is the concentration at which inhibition is half-maximal. High values mean weaker potency, low ones greater potency.

`CCNC(=O)C[C@@H]1N=C(c2ccc(Cl)cc2)c2cc(-c3ccc(CN4CCCC4)cc3)ccc2-n2c(C)nnc21` [Example 13, (S)-2-(6-(4-Chlorophenyl)-1-methyl-8-(4-(pyrrolidin-1-ylmethyl)phenyl)-4H-benzo[f][1,2,4]triazolo[4,3-a][1,4]diazepin-4-yl)-N-ethylacetamide]: the half-inhibitory concentration (IC50) was no more than 3.16 µM.

With `CCNC(=O)C[C@@H]1N=C(c2ccc(Cl)cc2)c2cc(-c3ccccc3)ccc2-n2c(C)nnc21` [Example 1, 2-[(4S)-6-(4-Chlorophenyl)-1-methyl-8-phenyl-4H-[1,2,4]triazolo[4,3-a][1,4]benzodiazepin-4-yl]-N-ethylacetamide], the concentration for half-maximal inhibition (IC50) is no more than 3.16 µM.

In turn, `CCNC(=O)C[C@@H]1N=C(c2ccc(Cl)cc2)c2cc(-c3ccn[nH]3)ccc2-n2c(C)nnc21` [Example 4, 2-[(4S)-6-(4-Chlorophenyl)-1-methyl-8-(1H-pyrazol-5-yl)-4H-[1,2,4]triazolo[4,3-a][1,4]benzodiazepin-4-yl]-N-ethylacetamide] showed an IC50 of no more than 3.16 µM.

Take `CCNC(=O)C[C@@H]1N=C(c2ccc(Cl)cc2)c2cc(-c3cn[nH]c3)ccc2-n2c(C)nnc21` [Example 5, 2-[(4S)-6-(4-Chlorophenyl)-1-methyl-8-(1H-pyrazol-4-yl)-4H-[1,2,4]triazolo[4,3-a][1,4]benzodiazepin-4-yl]-N-ethylacetamide]: the IC50 was no more than 3.16 µM.

`CCNC(=O)C[C@@H]1N=C(c2ccc(Cl)cc2)c2cc(-c3ccc(OC)cc3)ccc2-n2c(C)nnc21` [Example 3, 2-{(4S)-6-(4-Chlorophenyl)-1-methyl-8-[4-(methyloxy)phenyl]-4H-[1,2,4]triazolo[4,3-a][1,4]benzodiazepin-4-yl}-N-ethylacetamide] gave an IC50 of no more than 3.16 µM.
